Experimental data: ChEMBL document CHEMBL5523741, “Development of an Orally Bioavailable LCK PROTAC Degrader as a Potential Therapeutic Approach to T-Cell Acute Lymphoblastic Leukemia” (J Med Chem, 2024)
Converted amounts (≈) assume the structure as drawn. The source made the active and inactive calls. No cut-off for these calls is given here.

Columns and labels:
KOPTK1 [1] = assay: Downregulation of CISH in human KOPT-K1 cells measured for 6 hrs by tandem mass tag proteomic assay; type: functional, cell-based
KOPTK1 [2] = assay: Antiproliferative activity against human KOPT-K1 cells assessed as inhibition of cell growth at 100 nM measured for 160 hrs by celltiter glo assay; type: functional, cell-based
KOPTK1 [3] = assay: Downregulation of CSK in human KOPT-K1 cells measured for 6 hrs by tandem mass tag proteomic assay; type: functional, cell-based
KOPTK1 [4] = assay: Downregulation of EPHB1 in human KOPT-K1 cells measured for 6 hrs by tandem mass tag proteomic assay; type: functional, cell-based
KOPTK1 [5] = assay: Antiproliferative activity against human KOPT-K1 cells assessed as inhibition of cell growth at 100 nM measured for 18 hrs by celltiter glo assay; type: functional, cell-based
[6] = Metabolic stability in mouse liver microsomes assessed as half life in presence of NADPH by UPLC-MS/MS analysis; type: ADME, Microsome
[7] = target: Protein cereblon/Tyrosine-protein kinase Lck (Homo sapiens, UniProt P06239+Q96SW2); assay: PROTAC activity at HiBit-tagged LCK/CRBN in human KOPT-K1 cells assessed as induction of LCK degradation incubated for 6 hrs by Nano-Glo HiBiT assay relative to control; type: cell-based
Chain of Protein cereblon/Tyrosine-protein kinase Lck (P06239 2-509 limits assumed): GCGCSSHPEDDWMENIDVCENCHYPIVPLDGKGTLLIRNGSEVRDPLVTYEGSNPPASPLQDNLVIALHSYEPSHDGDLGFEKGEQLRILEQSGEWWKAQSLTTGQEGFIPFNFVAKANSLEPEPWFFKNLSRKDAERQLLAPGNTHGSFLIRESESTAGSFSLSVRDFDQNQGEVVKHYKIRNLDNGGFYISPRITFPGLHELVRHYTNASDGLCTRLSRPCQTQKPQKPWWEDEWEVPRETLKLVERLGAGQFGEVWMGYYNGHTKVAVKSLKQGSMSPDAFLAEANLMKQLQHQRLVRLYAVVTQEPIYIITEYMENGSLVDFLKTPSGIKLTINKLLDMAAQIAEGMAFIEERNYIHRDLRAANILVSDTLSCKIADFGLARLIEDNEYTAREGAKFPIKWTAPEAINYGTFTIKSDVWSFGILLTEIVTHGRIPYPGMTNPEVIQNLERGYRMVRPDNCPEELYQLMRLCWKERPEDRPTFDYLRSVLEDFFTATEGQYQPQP
Chain of Protein cereblon/Tyrosine-protein kinase Lck (Q96SW2 whole entry partner): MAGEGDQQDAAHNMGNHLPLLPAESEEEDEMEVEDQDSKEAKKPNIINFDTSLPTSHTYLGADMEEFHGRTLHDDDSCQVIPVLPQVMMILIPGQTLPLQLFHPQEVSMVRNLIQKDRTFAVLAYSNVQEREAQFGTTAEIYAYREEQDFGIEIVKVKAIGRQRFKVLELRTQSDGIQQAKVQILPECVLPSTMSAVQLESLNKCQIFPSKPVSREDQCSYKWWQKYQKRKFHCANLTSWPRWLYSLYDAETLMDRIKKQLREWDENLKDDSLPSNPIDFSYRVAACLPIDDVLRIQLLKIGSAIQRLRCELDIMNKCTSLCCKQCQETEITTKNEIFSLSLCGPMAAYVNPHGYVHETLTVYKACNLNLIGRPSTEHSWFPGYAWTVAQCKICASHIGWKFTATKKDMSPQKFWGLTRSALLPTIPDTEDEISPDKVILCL

[8] = Aqueous solubility of the compound incubated for 18 hrs by UPLC-SQDMS; type: physicochemical; conditions: buffer
[9] = Stability in CD-1 mouse plasma assessed as half life; type: ADME, cell-free
[10] = Apparent permeability of compound across basolateral to apical side in human Caco-2 cells; type: ADME, cell-based
[11] = Apparent permeability of compound across apical to basolateral side in human Caco-2 cells; type: ADME, cell-based
[12] = Drug concentration in CD-1 mouse plasma at 30 mg/kg, po measured after 4 hrs by UPLC-MS/MS analysis; type: ADME, organism-based
[13] = Efflux ratio of apparent permeability across basolateral to apical over apical to basolateral in human Caco-2 cells; type: ADME, cell-based

Row | SMILES | half-life [6] [h] | Emax [7] [%] | solubility at 18 h [8] [µM] | half-life [9] [h] | Papp B→A [10] [×10⁻⁶ cm/s] | Papp A→B [11] [×10⁻⁶ cm/s] | concentration at 4 h [12] [ng/mL] | efflux ratio [13] | Activity (KOPTK1 [1]) | Activity (KOPTK1 [2]) | Activity (KOPTK1 [3]) | Activity (KOPTK1 [4]) | Activity (KOPTK1 [5])
1 | Cc1nc(Nc2ncc(C(=O)Nc3c(C)cccc3Cl)s2)cc(N2CCN(CCO)CC2)n1 | – | – | – | – | – | – | – | – | Active | inactive | Active | Active | Active
2 | Cc1nc(Nc2ncc(C(=O)Nc3c(C)cccc3Cl)s2)cc(N2CCN(Cc3ccc(C4CCC(=O)NC4=O)cc3)CC2)n1 (stereo not given) | 1.23 | < 60 | 1.99 (≈ 1.28 µg/mL) | – | – | – | – | – | – | – | – | – | –
3 | Cc1nc(Nc2ncc(C(=O)Nc3c(C)cccc3Cl)s2)cc(N2CCN(CCCN3CCC(c4ccc(C5CCC(=O)NC5=O)cc4)CC3)CC2)n1 (stereo not given) | 10 | 87 | 2.57 (≈ 1.94 µg/mL) | 4.98 | 9.82 | 1.04 | 54 | – | – | – | – | – | –
4 | Cc1nc(Nc2ncc(C(=O)Nc3c(C)cccc3Cl)s2)cc(N2CCN(CCCN3CCC4(CC3)CCN(c3ccc(C5CCC(=O)NC5=O)cc3)CC4)CC2)n1 (stereo not given) | 10 | 93 | 1.4 (≈ 1.16 µg/mL) | 47.4 | 5.3 | 0.231 | 18 | – | – | – | – | – | –
5 | Cc1nc(Nc2ncc(C(=O)Nc3c(C)cccc3Cl)s2)cc(N2CCC(N(C)C3CCN(c4ccc(C5CCC(=O)NC5=O)cc4)CC3)CC2)n1 (stereo not given) | 2.1 | < 60 | – | 3.84 | 12.7 | 1.93 | 207 | 6.56 | – | – | – | – | –

Further lines, with some results ahead:

Row | half-life [6] [h] | Emax [7] [%] | solubility at 18 h [8] [µM] | half-life [9] [h] | Papp B→A [10] [×10⁻⁶ cm/s] | Papp A→B [11] [×10⁻⁶ cm/s] | concentration at 4 h [12] [ng/mL] | efflux ratio [13] | SMILES | Activity (KOPTK1 [1]) | Activity (KOPTK1 [2]) | Activity (KOPTK1 [3]) | Activity (KOPTK1 [4]) | Activity (KOPTK1 [5])
6 | 0.54 | 88 | 15.2 (≈ 12.1 µg/mL) | 4.25 | 1.55 | 1.32 | 1.19 | – | Cc1nc(Nc2ncc(C(=O)Nc3c(C)cccc3Cl)s2)cc(N2CCN(C(=O)CCCN3CC4CC3CN4c3ccc(C4CCC(=O)NC4=O)cc3)CC2)n1 (stereo not given) | – | – | – | – | –
7 | 0.67 | 84 | 0.65 (≈ 0.574 µg/mL) | – | – | – | – | – | Cc1nc(Nc2ncc(C(=O)Nc3c(C)cccc3Cl)s2)cc(N2CCN(CCCC(=O)N3CCC(CN4CCN(c5ccc(C6CCC(=O)NC6=O)cc5)CC4)CC3)CC2)n1 (stereo not given) | – | – | – | – | –
8 | 6.9 | 90 | 2.08 (≈ 1.58 µg/mL) | – | – | – | – | – | Cc1nc(Nc2ncc(C(=O)Nc3c(C)cccc3Cl)s2)cc(N2CCN(CCCN3CCN(c4ccc(C5CCC(=O)NC5=O)cc4)CC3)CC2)n1 (stereo not given) | – | – | – | – | –
9 | 2.6 | 83 | 14.5 (≈ 11.2 µg/mL) | – | – | – | – | – | Cc1nc(Nc2ncc(C(=O)Nc3c(C)cccc3Cl)s2)cc(N2CCN(CCCN3CC4CC3CN4c3ccc(C4CCC(=O)NC4=O)cc3)CC2)n1 (stereo not given) | – | – | – | – | –
